# In PubChem BioAssay AID1249 (Columbia University Molecular Screening Center, 2008):
# Calls of active or inactive are those of the source. No rule for the calls is given here.
# Test: cellular cytoskeleton assembly phenotype modulators – imaging, high-content imaging, retest and dose response, confirmation (AID 1249);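 also: compound exposure lasted 24 h before fixation; plate controls were untreated cells for no effect and reference compound treated cells for full effect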
# Details: cell-based imaging, cytoskeleton assembly phenotype, high content; at 2 µM; hits give high values
row,SMILES,inhibition
1,Cc1ncc(CO)c2cc(C(N)=O)c(=Nc3ccccc3)oc12,-1.3% (inactive)
2,Cc1ccc(S(=O)(=O)c2cc(C#N)c(=O)[nH]c2N)cc1,9.1% (inactive)
3,C(=N\Nc1nc2ccccc2s1)/c1cccs1,-5.8% (inactive)
4,COc1ccc(Oc2cc(NC(=O)c3nn(C)cc3[N+](=O)[O-])cc([N+](=O)[O-])c2)cc1,11.6% (inactive)
5,COc1cc(/C=N/Nc2snc(SC)c2C#N)ccc1O,-6.6% (inactive)
6,CC(=O)c1cccc(S(=O)(=O)N2CCC(n3nnc4cc(F)ccc43)CC2)c1,6.4% (inactive)
7,Cc1cc(NC(=O)CSc2nc(-c3cccs3)cc(C(F)(F)F)n2)no1,-6.4% (inactive)
8,CCC1=NC(c2ccccc2Cl)N(O)C1(C)C (stereo not drawn),7.9% (inactive)
9,COc1ccc(Cn2nnnc2C(c2cccs2)N2CCSCC2)cc1 (stereo not drawn),-3.9% (inactive)
10,COc1cccc(/C=N/Nc2nc(Nc3ccccc3)nc(-n3nc(C)cc3C)n2)c1O,1.2% (inactive)
11,Nc1nnnn1/N=C/C(Br)=C/c1ccccc1,1.2% (inactive)
12,C=C1N2CCC(CC2)C1(O)c1ccccc1C (stereo not drawn),-0.8% (inactive)
13,CCOC(=O)N1CCC(NC(=O)c2ccc(CS(=O)(=O)c3ccc(OC)cc3)o2)CC1,-7.4% (inactive)
14,CCOc1ccccc1N1C(=O)NC(=O)C(CCc2ccncc2)(CCc2ccncc2)C1=O,-4.8% (inactive)
15,Cn1nc(C(F)(F)F)c(C(=O)Nc2ccc(F)cc2F)c1Sc1ccc(C(F)(F)F)cc1,13.2% (inactive)
16,CC1=NNC(=O)/C1=C\c1cn(-c2ccccc2)nc1-c1ccc(Cl)cc1,-11.5% (inactive)
17,O=C(COC(=O)C1(c2ccccc2F)CCCC1)NC1CCS(=O)(=O)C1 (stereo not drawn),-1% (inactive)
18,Nc1nc2c3ccccc3nc(Cc3ccccc3)n2n1,3.4% (inactive)
19,O=C(NCc1cccs1)c1nc2c(nnn2Cc2ccccc2Cl)c(=O)[nH]1,-3.6% (inactive)
20,CCOC(=O)N1CCC(NC(=O)c2ccc(CNS(=O)(=O)c3ccc(F)cc3)cc2)CC1,-3.7% (inactive)
21,O=C(NCc1ccccc1)NC1(C(=O)N2CCCC2)CCCCC1,5.3% (inactive)
22,CCOC(=O)Cn1c(SC)nc2sc3c(c2c1=O)CC(C)(C)OC3,-24.8% (inactive)
23,CCOC(=O)c1ccc(NS(=O)C23CC4CC(CC(C4)C2)C3)cc1 (stereo not drawn),-10.9% (inactive)
24,CCOC(=O)c1ccc(NC(=O)CCNc2c(N3CCCC3)c(=O)c2=O)cc1,1.6% (inactive)
25,O=C(O)Cc1ccc(NC(=O)C2CC=CCC2C(=O)O)cc1 (stereo not drawn),-9.1% (inactive)

row,SMILES,inhibition
1,CC(=O)c1ccc(Oc2cc(C)nc(-n3nc(C)cc3C)n2)cc1,11% (inactive)
2,CCn1c(CN2CCN(c3ccc(Cl)cc3)CC2)nc2ccccc21,-1% (inactive)
3,COc1cc(C(=O)N2CCN(c3cc(Cl)ccc3Cl)CC2)cc(OC)c1OC,-2.9% (inactive)
4,C=CCNC(=O)c1nn2cccnc2c1Cl,-9.5% (inactive)
5,CCOC(=O)N1CCN(C(=O)COc2ccc(Cl)cc2C)CC1,0.3% (inactive)
6,Cc1nc2sc(C(c3ccc(Cl)cc3)N3CC(C)OC(C)C3)c(O)n2n1 (stereo not drawn),-4.4% (inactive)
7,O=C1c2cccc3c([N+](=O)[O-])ccc(c23)C(=O)N1c1nccs1,-0.1% (inactive)
8,COc1ccc(-c2nnc(SCC(=O)NC3CCCCC3)o2)cc1OC,-3.7% (inactive)
9,CCC(C)C1C(C#N)=C(N)Oc2n[nH]c(-c3ccccc3)c21 (stereo not drawn),1.1% (inactive)
10,CN(C)c1nc(N(C)C)nc(N(C#N)CCOc2ccccc2)n1,-6.3% (inactive)
11,CC(C)CCN1CC(C(=O)NCCC2=CCCCC2)CC1=O (stereo not drawn),-12.9% (inactive)
12,CCOc1cc(-c2conc2N)cc(OCC)c1OCC,10.2% (inactive)
13,CCCc1cc(=O)[nH]c(SCC(=O)Nc2nonc2N)n1,2.7% (inactive)
14,CCNCC(O)COCC(O)CNCC (stereo not drawn),5.1% (inactive)
15,O=[N+]([O-])c1ccc(Sc2nc3ccccc3o2)c([N+](=O)[O-])c1,4.3% (inactive)
16,C=CCCCOc1ccc(C(=O)O)cc1,-2.1% (inactive)
17,COc1cc(NC(=O)c2ccc(COCC(F)(F)F)o2)cc(OC)c1OC,5.2% (inactive)
18,Cc1cccc(NC(=O)CC2SC(=O)N(c3ccccc3)C2=O)c1 (stereo not drawn),1.5% (inactive)
19,CN1C(=O)C(C(=O)NC(C)(C)C)C2c3ccccc3OC13CCCCC23 (stereo not drawn),1.7% (inactive)
20,CCn1c(=O)cc(OCC(=O)NCc2ccco2)c2ccccc21,-5% (inactive)
21,CCc1nc2oc3ccccc3c(=O)c2c(=O)n1CCOC,1.7% (inactive)
22,COC(=O)c1cccc(S(=O)(=O)N(Cc2ccco2)Cc2cc3ccc(OC)cc3[nH]c2=O)c1,-3.3% (inactive)
23,CCCCCc1ccc(-c2ccc(=O)[nH]n2)cc1,-6.9% (inactive)
24,Cc1csc(NC(=O)CSc2nnc(-c3cccs3)n2C)n1,-10.1% (inactive)
25,CCOC(=O)c1[nH]c(C)c(C(=O)c2ccc(C)cc2)c1C,10.5% (inactive)

row,SMILES,inhibition
1,Cc1ccc(-n2nc3ccc(NC(=O)/C=C/c4ccco4)cc3n2)cc1C,-5.3% (inactive)
2,CSc1ccc(S(=O)(=O)Nc2ccc3c4c(cccc24)CC3)cc1,-10% (inactive)
3,CC(=O)c1cccc(NC(=O)c2cc(-c3ccc(F)cc3)on2)c1,0.8% (inactive)
4,Cc1ccc(S(=O)(=O)NC(CC(=O)O)c2ccco2)cc1 (stereo not drawn),8.2% (inactive)
5,C=CCNC(=O)C1CC(=O)N(c2ccc(OCC(=O)Nc3cccc(OC)c3)cc2)C1 (stereo not drawn),-2% (inactive)
6,Cc1ccccc1OCC(=O)Nc1ccc2c(c1)COC2=O,-15.6% (inactive)
7,COc1cc(CNCc2ccco2)ccc1OCc1ccccc1,-7.5% (inactive)
8,CCCOc1ccc(/C(O)=C2/C(=O)C(=O)N(CCOC)C2c2cccnc2)cc1 (stereo not drawn),-4.5% (inactive)
9,COc1ccc(N=c2oc3ccc(OC)cc3cc2-c2nc3ccccc3[nH]2)cc1,4.3% (inactive)
10,O=C(N/N=C/c1ccc[nH]1)c1sc2ccccc2c1Cl,-8.7% (inactive)
11,O=C(O)c1ccccc1Nc1ccccc1C(=O)O,0.6% (inactive)
12,O=C(CN1CCSCC1)N1CCc2[nH]c3ccc(Br)cc3c2C1,5.8% (inactive)
13,Oc1ccc(Nc2nc3ccccc3nc2Nc2ccc(O)cc2)cc1,-1.9% (inactive)
14,Cc1nc2ccccc2n1CCCOc1ccccc1,1% (inactive)
15,O=C(Oc1csc(=S)n1C(=O)c1ccccc1)c1ccccc1,-3% (inactive)
16,CCCCCCCCCCn1c2c(c(=N)c3c1CCC3)CCC2,-24.6% (inactive)
17,O=C(c1ccc(Cl)cc1)N1CCCOC1,-2% (inactive)
18,O=C(CS(=O)(=O)c1cn(Cc2cccc(F)c2)c2ccccc12)N1CCCCC1,-1.5% (inactive)
19,COc1cccc(C(=O)COc2cccc(NC(=O)c3cccc([N+](=O)[O-])c3)c2)c1,-2.2% (inactive)
20,COc1ccc(C(=O)C(CN2CCOCC2)c2ccccc2)cc1 (stereo not drawn),1.1% (inactive)
21,CCOC(=O)c1cnc(-n2nc(C)cc2C)nc1N1CCOCC1,8.4% (inactive)
22,Clc1ccc(C2=Nn3c(nnc3-c3cccnc3)SC2)s1,0% (inactive)
23,Cn1c(SCC(=O)NC2CCCCC2)nnc1-c1cccc(N)c1,-8.2% (inactive)
